Reference: the supplement of paper PMC10307832

Assays:
Experiment in all cases: relative viability (nuclei count vs DMSO), 5 days (fraction); higher = more cells survive
Pemetrexed + Trametinib = compound: Nc1nc2[nH]cc(CCc3ccc(C(=O)N[C@@H](CCC(=O)O)C(=O)O)cc3)c2c(=O)[nH]1 [Pemetrexed] + CC(=O)Nc1cccc(-n2c(=O)n(C3CC3)c(=O)c3c(Nc4ccc(I)cc4F)n(C)c(=O)c(C)c32)c1 [Trametinib] (partner 0.02 µM)
In short: (§1)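 Lung cancer cell lines in 1536-well plates got either a single drug or a fixed anchor-drug dose together with five library-drug doses (not always all listed) in √10 steps, by pin tool, on the day after seeding. Nuclei were counted after 5 days, and relative viability is the treated-to-vehicle ratio of nuclei counts. Values are medians of duplicate plates.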

Idelalisib + Dasatinib = compound: CC[C@H](Nc1ncnc2[nH]cnc12)c1nc2cccc(F)c2c(=O)n1-c1ccccc1 [Idelalisib] + Cc1nc(Nc2ncc(C(=O)Nc3c(C)cccc3Cl)s2)cc(N2CCN(CCO)CC2)n1 [Dasatinib] (partner 0.075 µM)
In short: as §1

Idelalisib + Decitabine = compound: CC[C@H](Nc1ncnc2[nH]cnc12)c1nc2cccc(F)c2c(=O)n1-c1ccccc1 [Idelalisib] + Nc1ncn([C@H]2C[C@H](O)[C@@H](CO)O2)c(=O)n1 [Decitabine] (partner 2 µM)
In short: as §1

Pemetrexed + Tozasertib = compound: Nc1nc2[nH]cc(CCc3ccc(C(=O)N[C@@H](CCC(=O)O)C(=O)O)cc3)c2c(=O)[nH]1 [Pemetrexed] + Cc1cc(Nc2cc(N3CCN(C)CC3)nc(Sc3ccc(NC(=O)C4CC4)cc3)n2)n[nH]1 [Tozasertib] (partner 0.1 µM)
In short: as §1

Cell Line	relative viability (Pemetrexed + Trametinib; first compound 0.002 µM)	relative viability (Pemetrexed + Trametinib; first compound 0.006325 µM)	relative viability (Pemetrexed + Trametinib; first compound 0.02 µM)	relative viability (Pemetrexed + Trametinib; first compound 0.06325 µM)	relative viability (Pemetrexed + Trametinib; first compound 0.2 µM)	relative viability (Idelalisib + Dasatinib; first compound 0.04 µM)	relative viability (Idelalisib + Dasatinib; first compound 0.1265 µM)	relative viability (Idelalisib + Dasatinib; first compound 0.4 µM)	relative viability (Idelalisib + Dasatinib; first compound 1.265 µM)	relative viability (Idelalisib + Dasatinib; first compound 4 µM)	relative viability (Idelalisib + Decitabine; first compound 0.04 µM)	relative viability (Idelalisib + Decitabine; first compound 0.1265 µM)	relative viability (Idelalisib + Decitabine; first compound 1.265 µM)	relative viability (Idelalisib + Decitabine; first compound 4 µM)	relative viability (Pemetrexed + Tozasertib; first compound 0.002 µM)	relative viability (Pemetrexed + Tozasertib; first compound 0.006325 µM)	relative viability (Pemetrexed + Tozasertib; first compound 0.02 µM)	relative viability (Pemetrexed + Tozasertib; first compound 0.06325 µM)	relative viability (Pemetrexed + Tozasertib; first compound 0.2 µM)	relative viability (Idelalisib + Decitabine; first compound 0.4 µM)
NCI-H441	0.536	0.501	0.448	0.303	0.247	0.681	0.687	0.585	0.639	0.467	0.313	0.235	0.267	0.187	0.66	0.484	0.827	0.515	0.342	–
NCI-H2342	0.763	0.757	0.773	0.857	0.841	0.358	0.316	0.324	0.304	0.327	0.802	0.764	0.668	0.618	0.454	0.497	0.573	0.589	0.486	0.658
SK-MES-1	0.553	0.568	0.618	0.559	0.539	0.33	0.306	0.208	0.199	0.187	0.399	0.414	0.248	0.257	0.891	0.843	0.879	0.843	0.817	0.36
HCC-15	0.371	0.344	0.392	0.336	0.218	0.614	0.591	0.52	0.674	0.491	0.687	0.692	0.82	0.622	0.431	0.394	0.497	0.407	0.205	0.547
EPLC-272H	0.33	0.27	0.385	0.305	0.227	0.277	0.293	0.293	0.271	0.291	0.35	0.354	0.435	0.333	0.284	0.261	0.225	0.251	0.306	0.366
NCI-H2009	0.303	0.256	0.316	0.249	0.27	0.335	0.302	0.266	0.252	0.197	0.4	0.35	0.405	0.381	0.707	0.697	0.855	0.71	0.694	0.322
NCI-H661	0.659	0.524	0.705	0.549	0.571	1.1	0.969	0.673	1.08	0.673	0.616	0.583	0.6	0.542	0.368	0.325	0.349	0.348	0.351	0.543
NCI-H520	0.569	0.682	0.757	0.606	0.657	0.201	0.158	0.126	0.209	0.147	0.506	0.386	0.502	0.431	0.42	0.475	0.447	0.412	0.45	0.45
